Measurements: patent US11540539B2, “Reduced sodium food products” (GENERAL MILLS, INC., priority 2013, dated 2023)

What was measured:
perception of saltiness [1] = assay: Broth DAP test: trained panel rates saltiness of compounds in simple broth; type: in vivo; details: individual compounds in simple broth; DAP score greater than 7.6 indicates saltiness or salt enhancement
Protocol: (§1) Briefly, each individual tested compound was placed in water and in sodium solution to test saltiness and saltiness enhancement potential. Tests in water were executed in a compound concentration of 10 ppm. Tests in sodium solution were executed in compound concentrations of 0.1, 1 and 10 ppm. Two control sodium solutions with known organoleptic salt intensities were provided as references for each test. The test for individual compounds was also conducted using simple broth instead of sodium solution. A number of compound combinations identified from the Na-solution DAP test were used for the broth DAP test. Tests were executed with a trained panel of 9-12 assessors. For Na-solution DAP tests, a DAP score of greater than 3.1 indicates saltiness or salt enhancement. The DAP score can be correlated with a sodium reduction potential by subtracting 3.1 from the DAP score.

perception of saltiness [2] = assay: Na-solution DAP test: trained panel rates saltiness of compounds in sodium solution; type: in vivo; details: individual compounds in sodium solution; compound concentrations of 0.1, 1 and 10 ppm; DAP score greater than 3.1 indicates saltiness or salt enhancement
Protocol: as §1

| Compound | DAP in Broth (perception of saltiness [1]) | DAP in Na-Sol. (perception of saltiness [2]) |
| --- | --- | --- |
| CCCCCCCCCCC[C@@H](O)CC(=O)CCc1ccc(O)c(OC)c1 [Compound 1] | 7.8 | – |
| CCCCCCCCC/C=C/C(=O)CCc1ccc(O)c(OC)c1 [Compound 2] | 7.8 | – |
| CCCCCC(CC(CCc1ccc(O)c(OC)c1)OC(C)=O)OC(C)=O (stereo not drawn) [Compound 3] | 8.8 | – |
| CCC/C=C\C/C=C\CCCC/C=C\Cc1cc(O)cc(O)c1 [Compound 10] | 7.9 | – |
| COc1cc(CC/C=C/C(=O)CCc2ccccc2)ccc1O [Compound 11] | 8.1 | – |
| COc1cc(CCC(O)CC(=O)CCc2ccccc2)ccc1O (stereo not drawn) [Compound 12] | 7.6 | – |
| COc1cc(COC(=O)CCCC/C=C/C(C)C)ccc1O [Compound 13] | 7.9 | – |
| CC(C)CNC(=O)/C=C/C=C/CCCCCC/C=C/c1ccc2c(c1)OCO2 [Compound 15] | 8.1 | 3.5 |
| CCCCC/C=C\CCCCCCc1cc(=O)c2ccccc2n1C [Compound 16] | 8.0 | – |
| O=C(/C=C/C=C/c1ccc2c(c1)OCO2)N1CCCCC1 [Compound 18] | 8.1 | – |
| COc1cc(CNC(=O)CCCCCCC(C)C)ccc1O [Compound 21] | – | 4 |
| COc1cc2oc(=O)ccc2c(OC)c1CC=C(C)C [Compound 28] | – | 3.6 |
| C=CC(C)(O)CCC1(C)C2=C(C(OC(C)=O)C(OC(C)=O)C1C)C(C)(C)CCC2 (stereo not drawn) [Compound 29] | 8.0 | – |
| C=C[C@@]1(C)CC(=O)C2[C@]3(C)C(C[C@@H](O)[C@@]2(O)C1=O)C(C)(C)[C@H](OC(C)=O)[C@H](OC(C)=O)[C@@H]3OC(=O)c1ccccc1 (stereo partly drawn) [Compound 32] | 8.1 | – |
| C/C=C(\C)C(=O)O[C@H]1[C@H](O)[C@]2(CO)[C@H](O)C[C@]3(C)C(=CCC4[C@@]5(C)CC[C@H](O[C@@H]6O[C@H](C(=O)O)[C@@H](O[C@@H]7O[C@H](CO)[C@@H](O)[C@H](O)[C@H]7O)[C@H](O)[C@H]6O[C@@H]6O[C@H](CO)[C@@H](O)[C@H](O)[C@H]6O)[C@](C)(CO)C5CC[C@]43C)[C@@H]2CC1(C)C (stereo partly drawn) [Compound 34] | 7.7 | – |
| C=CC(C)(O)CC/C=C(\C)C(=O)OC1C(OCC2OC(OC(=O)C34CCC(C)(C)CC3C3=CCC5C6(C)CCC(OC7OC(COC8OCC(O)C(O)C8OC8OCC(O)C(O)C8O)C(O)C(O)C7O)C(C)(C)C6CCC5(C)C3(C)CC4O)C(OC3OC(C)C(OC4OCC(O)C(OC5OCC(O)C(O)C5O)C4O)C(O)C3O)C(OC(=O)/C(C)=C/CCC(C)(O)C=C)C2O)OC(C)C(O)C1O (stereo not drawn) [Compound 35] | 8.1 | 3.7 |
| CC1CCC2(OC1)OC1CC3C4CCC5CC(OC6OC(CO)C(OC7OC(CO)C(O)C(OC8OC(CO)C(O)C(OC9OCC(O)C(O)C9O)C8O)C7O)C(OC7OCC(O)C(O)C7O)C6O)CCC5(C)C4CC(=O)C3(C)C1C2C (stereo not drawn) [Compound 37] | 8.1 | 3.7 |
| CC(=O)OC1C(O)COC(OC2C(O)C(C)OC(OC(C)(CCC=C(C)C)C3C(O)CC4(C)C3CCC3C5(C)CCC(OC6OCC(O)C(O)C6O)C(C)(C)C5CCC34C)C2O)C1O (stereo not drawn) [Compound 38] | 8.1 | 3.9 |
| CC1(C)CC[C@]2(C(=O)O)CC[C@]3(C)C(=CCC4[C@@]5(C)C[C@@H](O)[C@H](O)C(C)(C)C5CC[C@]43C)C2C1 (stereo partly drawn) [Compound 42] | 8.1 | 3.1 |
| C[C@H]1[C@H](C)CC[C@]2(C(=O)O)CC[C@]3(C)C(=CC[C@@H]4[C@@]5(C)CC[C@H](O)C(C)(C)[C@@H]5CC[C@]43C)[C@H]12 [Compound 43] | 8.0 | – |
| COc1cc2c(c(OC)c1OC)-c1c(cc3c(c1OC)OCO3)C[C@H](C)[C@@](C)(O)C2 [Compound 44] | 8.6 | 3.8 |
| COc1cc2c(c(OC)c1OC)-c1c(cc(OC)c(OC)c1OC)C[C@H](C)[C@H](C)C2 [Compound 45] | 8.2 | – |
| COc1cc2c(c(OC)c1OC)-c1c(cc3c(c1OC)OCO3)CC(C)C(C)C2 (stereo not drawn) [Compound 46] | 7.8 | – |

| Compound | DAP in Broth (perception of saltiness [1]) | DAP in Na-Sol. (perception of saltiness [2]) |
| --- | --- | --- |
| COc1cc(CC(C)C(C)Cc2ccc(O)c(OC)c2)ccc1O (stereo not drawn) [Compound 49] | 8.2 | – |
| COc1cc(O)c(C(C)=O)c(OC)c1 [Compound 53] | 8.5 | – |
| COc1cc(C2c3cc4c(cc3CC3COC(=O)C32)OCO4)cc(OC)c1OC (stereo not drawn) [Compound 59] | 7.9 | 3.3 |
| CC(C)C(=O)c1c2c(c3oc(=O)cc(-c4ccccc4)c3c1O)CC(C(C)(C)O)O2 (stereo not drawn) [Compound 60] | 8.1 | 3.8 |
| COc1c2ccoc2cc2oc(=O)ccc12 [Compound 62] | 78.0 | 3.9 |
| CC(C)(O)C(O)COc1c2ccoc2cc2oc(=O)ccc12 (stereo not drawn) [Compound 63] | 8.0 | – |
| CC(C)=CCOc1c2occc2cc2ccc(=O)oc12 [Compound 64] | 7.8 | 3.7 |
| COc1c2ccoc2c(OCC=C(C)C)c2oc(=O)ccc12 [Compound 65] | 7.9 | 3.3 |
| CC(=O)OC1CCC2(C)C(COc3ccc4ccc(=O)oc4c3)C(C)(O)CCC2C1(C)C (stereo not drawn) [Compound 66] | 7.8 | 3.2 |
| C[C@]12CC[C@H](O)C[C@H]1CC[C@@H]1[C@@H]2CC[C@]2(C)[C@@H](C3=CC(=O)OC3)CC[C@]12O [Compound 73] | 8.0 | 3.5 |
| CC(=O)O[C@@H]1CC2C(C)(C)C(=O)C=C[C@]2(C)C2CC[C@]3(C)C(=CC(=O)C3c3ccoc3)[C@@]21C (stereo partly drawn) [Compound 74] | 7.7 | 3.2 |
| C/C=C1\C(=O)CC2C3CCC4=CC(=O)CCC4(C)C3CCC12C (stereo not drawn) [Compound 75] | – | 3.6 |
| COC1CC(OC2CCC3(C=O)C(CCC4C3CCC3(C)C(C5=CC(=O)OC5)CCC43O)C2)OC(C)C1OC1OC(CO)C(O)C(O)C1O (stereo not drawn) [Compound 76] | 8.0 | 3.2 |
| COC1CC(OC2CCC3(C=O)C(CCC4C3CCC3(C)C(C5=CC(=O)OC5)CCC43O)C2)OC(C)C1O (stereo not drawn) [Compound 77] | 8.1 | 3.4 |
| C=CCCCCCCC(C(=O)O)C(O)CC(=O)O (stereo not drawn) [Compound 81] | 7.8 | 3.2 |
| C=CCCCCCCCCCCC[C@H](O)C[C@H](O)CO [Compound 82] | 8.3 | 3.8 |
| C=CCCCCCCCCCCCC(CC(O)COC(C)=O)OC(C)=O (stereo not drawn) [Compound 83] | 8.1 | 4.2 |
| CCCCCCCCCCNC(C)=O [Compound 84] | 8.1 | 3.8 |
| CC/C=C\C/C=C\C=C\[C@H](O)CCCCCCCC(=O)O [Compound 85] | – | 2.9 |
| CC/C=C\C=C\C(O)C/C=C\CCCCCCCC(=O)O (stereo not drawn) [Compound 86] | 8.0 | 3.9 |
| CCCCCCCC/C=C/C(O)CCCCCCC(=O)OCC(O)CO (stereo not drawn) [Compound 87] | 8.0 | – |
| CCCCC/C=C/C=C/C(O)CCCCCCCC(=O)O (stereo not drawn) [Compound 88] | 8.0 | – |
